Assays:
[1] = CD thermal denaturation of peptide in isolation; type: physicochemical; conditions: CD at 222 nm; 150 μM total peptide; 10 mM potassium phosphate, 100 mM potassium fluoride, pH 7
From the text: Following the observed significant increase in global secondary structure content for the ATF3-ATF3W_aeg complex relative to component peptides (Figure 6), we next analyzed the stability of the complex by undertaking thermal denaturation experiments (Figure 7). […] Moreover, consistent with spectral data, the clear increase from the average profile of the component peptides relative to that of the measured is most pronounced in the combined construct (Figure 7, red hash vs black). This provides robust additional evidence for a preferential interaction between ATF3 and ATF3W_aeg that is improved over either the core a or electrostatic e/g constructs.
Shown are thermal stabilities of peptide pairs measured via temperature dependence of the CD signal at 222 nm. The thermal denaturation profiles for (a) ATF3-ATF3W_a, (b) ATF3-ATF3W_eg, and (c) ATF3-ATF3W_aeg show a substantial increase in the transition midpoint (Tm = 59 °C) relative to component peptides (black vs red hash). Experiments were performed in 10 mM potassium phosphate and 100 mM potassium fluoride (pH 7.0). All spectra were recorded at 1 °C increments at a total peptide concentration of 150 μM and fitted to a two-state denaturation model. […]

[2] = molecular target: T1, ATF3 (Homo sapiens, UniProt P18847); test: Size-exclusion chromatography of ATF3-ATF3W_aeg mixture; type: binding; conditions: Superdex Peptide 10/300 GL, RT; 20 μM total peptide
T1 construct: We focus on the selective targeting of the ATF3 leucine zipper dimerization domain using intracellular peptide library screening; made in house; host or cells: chemical solid-phase peptide synthesis (no expression host)
T1 sequence (P18847 110-143): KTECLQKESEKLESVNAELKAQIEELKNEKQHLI
Description: During SEC experiments, monomeric ATF3 (Figure 8, blue line) and ATF3W_aeg (Figure 8, green line) eluted at approximately 20 min. These contrast with the dimeric profile observed for ATF3-ATF3W_aeg (Figure 8, black line), which occurred at approximately 19 min. For all samples, elution profiles were consistent with either a validated monomer or dimer elution pattern.[15]
Figure 8 SEC profiles indicate that ATF3W_aeg binds ATF3. Shown are size exclusion chromatography profiles for interacting peptides. The peak at approx 19 min for the ATF3-ATF3W_aeg mixture (black trace) represents a dimeric sample while ATF3 (blue trace) and ATF3W_aeg (green trace) generate a peak at approx 20 min, indicating the presence of a monomer. These experiments, undertaken at a total peptide concentration of 20 μM, provide additional evidence for selectivity of the ATF3-ATF3W_aeg interaction. Arrows show controls from previous peptides with elution times for a 32 mer Fos monomeric peptide (20 min) and a 37 mer cJun–FosW heterodimer (18.5 min).[15]
Size-exclusion experiments were performed at RT using a Superdex Peptide 10/300 GL column (GE Healthcare Life Sciences) as described previously.[23]

[3] = molecular target: T1, ATF3; test: CD spectra of ATF3-ATF3W_aeg complex; type: binding; conditions: 1:1 stoichiometry with ATF3, 150 μM total peptide, pH 7.0
Description: ATF3, ATF3W_a, and ATF3W_eg and combined hit sequence ATF3W_aeg were synthesized using solid phase peptide synthesis, purified by RP-HPLC, and verified for correct mass using ESI-MS (Figure S3), after which circular dichroism (CD) was used to characterize both ATF3 and antagonist peptides for helicity and interactions as homodimers, as well as heterodimers with the ATF3 target. Global secondary analysis of both homodimeric and heterodimeric systems was carried out at a total peptide concentration of 150 μM to keep equimolar concentrations of each component helix. The 222/208 ratio was used to provide evidence on whether the helices were likely to be monomeric or adopt quaternary structure.[13] […] Furthermore, incubation of ATF3 with ATF3W_aeg elicited a significant conformational change in the sample relative to the average of the component peptides (Figure 6d black line vs red hash), providing compelling evidence for an interaction.[14] In addition, the component PCA hits were examined using CD.
Figure 6 CD spectra data indicates a ATF3-ATF3W_aeg interaction. […] Spectra were next measured at 20 and 5 °C and again post-thermal denaturation (PM 20 °C to establish reversible that unfolding is fully reversible) at a total peptide concentration of 150 μM and presented as mean residue ellipticity (MRE). […]

Question: For “Ac-ELAALEQKAYALKQENAALEKEVAALEQKIAALK-NH2 (N-terminus and C-terminus assumed) [ATF3W_aeg]”, which “self-association in isolation (thermal denaturation profile)” value [1] is on record?
Answer: inability of ATF3W_aeg to form a stable homodimer in isolation

Question: And the “SEC elution time of ATF3-ATF3W_aeg mixture” value [2]?
Answer: approximately 19 min

Question: And the “oligomeric state of ATF3-ATF3W_aeg interaction by SEC” value [2]?
Answer: exclusively dimeric

Question: And the “222/208 ratio of ATF3-ATF3W_aeg complex” value [3]?
Answer: 0.94

Question: What about the “fractional helicity (fH) of ATF3-ATF3W_aeg complex” value [3] of the same substance?
Answer: ~68%
